Assay results from PubChem BioAssay (NCI).
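Growth conditions: 96-well plates. Treatment: test compound, 48 hours, 5 concentrations. Analysis: linear interpolation between bracketing concentrations; unreached endpoints set to highest concentration. Here, GI50 denotes the concentration required for 50% inhibition of growth. Definition used: TGI = concentration required for complete inhibition of growth.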

How the values were obtained:
Experiment in all cases: inhibition of tumour cell growth, NCI panel, 48 h
KM12 colon = test system: KM12 colon
COLO 205 colon = test system: COLO 205 colon
SK-MEL-5 melanoma = test system: SK-MEL-5 melanoma
SF-268 CNS = test system: SF-268 CNS
IGROV1 ovarian = test system: IGROV1 ovarian
NCI-H226 lung = test system: NCI-H226 lung
UO-31 renal = test system: UO-31 renal
NCI-H522 lung = test system: NCI-H522 lung
UACC-257 melanoma = test system: UACC-257 melanoma
RPMI-8226 leukemia = test system: RPMI-8226 leukemia

O=C(Nc1cccnc1)c1cccs1
GI50 (KM12 colon): 0.941 µM | TGI (KM12 colon): > 100 µM | GI50 (COLO 205 colon): 3.08 µM | TGI (COLO 205 colon): > 100 µM | GI50 (SK-MEL-5 melanoma): 53 µM | TGI (SK-MEL-5 melanoma): > 100 µM | GI50 (SF-268 CNS): 4.54 µM | TGI (SF-268 CNS): > 100 µM | GI50 (IGROV1 ovarian): > 100 µM | TGI (IGROV1 ovarian): > 100 µM | GI50 (NCI-H226 lung): 41 µM | TGI (NCI-H226 lung): > 100 µM | GI50 (UO-31 renal): > 100 µM | TGI (UO-31 renal): > 100 µM | GI50 (NCI-H522 lung): > 100 µM | TGI (NCI-H522 lung): > 100 µM | GI50 (UACC-257 melanoma): > 100 µM | TGI (UACC-257 melanoma): > 100 µM

Cc1c(NC(=O)CCCl)c(=O)oc2c(C)c3occc(=O)c3cc12
TGI (KM12 colon): > 100 µM | TGI (COLO 205 colon): > 100 µM | TGI (SK-MEL-5 melanoma): > 100 µM | TGI (SF-268 CNS): > 100 µM | TGI (IGROV1 ovarian): > 100 µM | TGI (RPMI-8226 leukemia): > 100 µM | TGI (UO-31 renal): > 100 µM | TGI (UACC-257 melanoma): > 100 µM

N#Cc1cc(-c2ccccc2)[nH]c1-c1nccc2ccccc12
GI50 (KM12 colon): 20.7 µM | TGI (KM12 colon): > 100 µM | GI50 (COLO 205 colon): 11.7 µM | TGI (COLO 205 colon): 33.2 µM | GI50 (SK-MEL-5 melanoma): 3.58 µM | TGI (SK-MEL-5 melanoma): 15.2 µM | GI50 (SF-268 CNS): 22.6 µM | TGI (SF-268 CNS): > 100 µM | GI50 (IGROV1 ovarian): 23.3 µM | TGI (IGROV1 ovarian): > 100 µM | GI50 (RPMI-8226 leukemia): 4.35 µM | TGI (RPMI-8226 leukemia): 53.2 µM | GI50 (UO-31 renal): 6.81 µM | TGI (UO-31 renal): > 100 µM | GI50 (NCI-H522 lung): 12.4 µM | TGI (NCI-H522 lung): 98 µM | GI50 (UACC-257 melanoma): 7.81 µM | TGI (UACC-257 melanoma): 60.1 µM

Nc1ccn(C2OC(CO[P+](=O)OC3C(CO[P+](=O)OC4C(CO[P+](=O)OC5C(CO[P+](=O)OC6C(CO[P+](=O)OC7C(CO[P+](=O)OC8C(CO[P+](=O)OC9C(CO[P+](=O)OC%10C(CO[P+](=O)OC%11C(CO)OC(n%12ccc(N)nc%12=O)C%11(F)F)OC(n%11ccc(N)nc%11=O)C%10(F)F)OC(n%10ccc(N)nc%10=O)C9(F)F)OC(n9ccc(N)nc9=O)C8(F)F)OC(n8ccc(N)nc8=O)C7(F)F)OC(n7ccc(N)nc7=O)C6(F)F)OC(n6ccc(N)nc6=O)C5(F)F)OC(n5ccc(N)nc5=O)C4(F)F)OC(n4ccc(N)nc4=O)C3(F)F)C(O)C2(F)F)c(=O)n1 (configuration not stated)
GI50 (KM12 colon): 2.03 µM | TGI (KM12 colon): > 100 µM | GI50 (COLO 205 colon): 0.369 µM | TGI (COLO 205 colon): > 100 µM | TGI (SK-MEL-5 melanoma): > 100 µM | GI50 (IGROV1 ovarian): > 100 µM | TGI (IGROV1 ovarian): > 100 µM | GI50 (NCI-H226 lung): 18.3 µM | TGI (NCI-H226 lung): > 100 µM | GI50 (NCI-H522 lung): 0.224 µM | TGI (NCI-H522 lung): > 100 µM | GI50 (UACC-257 melanoma): 0.859 µM

c1ccc2c(c1)nnn1c3cnccc3nc21
TGI (KM12 colon): 64.8 µM | TGI (COLO 205 colon): 46.1 µM | TGI (SK-MEL-5 melanoma): > 100 µM | TGI (SF-268 CNS): > 100 µM | TGI (IGROV1 ovarian): > 100 µM | TGI (RPMI-8226 leukemia): 58.8 µM | TGI (UO-31 renal): > 100 µM | TGI (NCI-H522 lung): 28.4 µM | TGI (UACC-257 melanoma): > 100 µM

Nc1ccccc1C#Cc1ccccc1C#Cc1ccccc1N
GI50 (KM12 colon): 2.97 µM | TGI (KM12 colon): 14.7 µM | GI50 (COLO 205 colon): 15 µM | TGI (COLO 205 colon): 43.9 µM | GI50 (SK-MEL-5 melanoma): 9.09 µM | TGI (SK-MEL-5 melanoma): 22.9 µM | GI50 (SF-268 CNS): 10.6 µM | TGI (SF-268 CNS): 37 µM | GI50 (IGROV1 ovarian): 10.2 µM | TGI (IGROV1 ovarian): 30.4 µM | GI50 (NCI-H226 lung): 12.7 µM | TGI (NCI-H226 lung): 31.1 µM | GI50 (UO-31 renal): 6.34 µM | TGI (UO-31 renal): 22.5 µM | GI50 (NCI-H522 lung): 3.17 µM | TGI (NCI-H522 lung): 11.5 µM | GI50 (UACC-257 melanoma): 30.1 µM | TGI (UACC-257 melanoma): > 100 µM

CCOC(=O)CC(=O)N(c1ccc(OC)cc1)C(C(=O)OC)c1ccccc1 (configuration not stated)
TGI (KM12 colon): > 100 µM | TGI (COLO 205 colon): > 100 µM | TGI (SK-MEL-5 melanoma): > 100 µM | TGI (SF-268 CNS): > 100 µM | TGI (IGROV1 ovarian): > 100 µM | TGI (RPMI-8226 leukemia): > 100 µM | TGI (UO-31 renal): > 100 µM | TGI (NCI-H522 lung): > 100 µM | TGI (UACC-257 melanoma): > 100 µM

CCCCN(CCCC)c1cc(C(=O)CCCCCN)c2ccccc2n1
GI50 (SK-MEL-5 melanoma): 1.58 µM | TGI (SK-MEL-5 melanoma): 2.92 µM | GI50 (SF-268 CNS): 3.38 µM | TGI (SF-268 CNS): 12.7 µM | GI50 (RPMI-8226 leukemia): 2.95 µM | TGI (RPMI-8226 leukemia): 6.53 µM | GI50 (UO-31 renal): 1.85 µM | TGI (UO-31 renal): 3.68 µM | GI50 (NCI-H522 lung): 1.91 µM | TGI (NCI-H522 lung): 3.52 µM | GI50 (UACC-257 melanoma): 1.76 µM | TGI (UACC-257 melanoma): 3.5 µM

CC12Oc3ccc4ccccc4c3C1c1c(ccc3ccccc13)O2 (configuration not stated)
TGI (KM12 colon): > 100 µM | TGI (COLO 205 colon): > 100 µM | TGI (SK-MEL-5 melanoma): > 100 µM | TGI (SF-268 CNS): > 100 µM | TGI (IGROV1 ovarian): > 100 µM | TGI (NCI-H226 lung): > 100 µM | TGI (UO-31 renal): > 100 µM | TGI (NCI-H522 lung): > 100 µM

CCOC(=O)/C(=C/c1cc(OC)ccc1OC)CC(=O)O
TGI (KM12 colon): > 100 µM | TGI (COLO 205 colon): > 100 µM | TGI (SK-MEL-5 melanoma): > 100 µM | TGI (SF-268 CNS): > 100 µM | TGI (IGROV1 ovarian): > 100 µM | TGI (RPMI-8226 leukemia): > 31.6 µM | TGI (UO-31 renal): > 100 µM | TGI (NCI-H522 lung): > 100 µM | TGI (UACC-257 melanoma): > 100 µM

Cc1cc(N2CCOCC2)nc(N(CCNc2ccnc3cc(Cl)ccc23)Cc2ccco2)n1
GI50 (KM12 colon): 4.81 µM | TGI (KM12 colon): 53.5 µM | GI50 (COLO 205 colon): 2.34 µM | TGI (COLO 205 colon): > 100 µM | GI50 (SK-MEL-5 melanoma): 3.1 µM | TGI (SK-MEL-5 melanoma): 12.1 µM | GI50 (SF-268 CNS): 11.1 µM | TGI (SF-268 CNS): 46 µM | GI50 (IGROV1 ovarian): 3.92 µM | TGI (IGROV1 ovarian): 23.1 µM | GI50 (NCI-H226 lung): 3.78 µM | TGI (NCI-H226 lung): 25.5 µM | GI50 (UO-31 renal): 1.99 µM | TGI (UO-31 renal): 6.97 µM | GI50 (NCI-H522 lung): 1.84 µM | TGI (NCI-H522 lung): 4.75 µM | GI50 (UACC-257 melanoma): 3.41 µM | TGI (UACC-257 melanoma): 16.5 µM

CC1C(=O)CCC1C(Sc1ccccc1)(Sc1ccccc1)Sc1ccccc1 (configuration not stated)
TGI (KM12 colon): > 100 µM | TGI (COLO 205 colon): > 100 µM | TGI (SK-MEL-5 melanoma): 73.5 µM | TGI (SF-268 CNS): 46.3 µM | TGI (IGROV1 ovarian): 78.4 µM | TGI (RPMI-8226 leukemia): 40.6 µM | TGI (UO-31 renal): 5.9 µM | TGI (NCI-H522 lung): 26.8 µM | TGI (UACC-257 melanoma): > 100 µM

COC1OC(COCc2ccc(Cl)cc2)C(OCc2ccc(Cl)cc2)C1O (configuration not stated)
TGI (KM12 colon): 29.3 µM | TGI (COLO 205 colon): 34.3 µM | TGI (SK-MEL-5 melanoma): 28.6 µM | TGI (SF-268 CNS): 35.5 µM | TGI (IGROV1 ovarian): 50.9 µM | TGI (RPMI-8226 leukemia): > 100 µM | TGI (UO-31 renal): 29.4 µM | TGI (NCI-H522 lung): 27.5 µM | TGI (UACC-257 melanoma): 30.7 µM

CCOC(=O)NC(=O)c1cn(CCCCCCCCCCC(=O)N2CCN(CCn3cc(C(=O)NC(=O)OCC)c(=O)[nH]c3=O)CC2)c(=O)[nH]c1=O
TGI (COLO 205 colon): > 100 µM | TGI (SK-MEL-5 melanoma): > 100 µM | TGI (IGROV1 ovarian): > 100 µM | TGI (RPMI-8226 leukemia): > 100 µM | TGI (UACC-257 melanoma): > 100 µM
